compound: N[C@@H]1CCCN(c2c(/C=C3\SC(=O)NC3=O)cccc2-c2ccccc2)C1 [AZD1208] + CC(=O)c1c(C)c2cnc(Nc3ccc(N4CCNCC4)cn3)nc2n(C2CCCC2)c1=O [Palbociclib] (partner 0.5 µM); test: relative viability (nuclei count vs DMSO), 5 days (fraction); higher = more cells survive; settings: first compound 0.08 µM
Method in brief: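 One day after seeding in 1536-well plates, lung cancer cell lines were dosed by pin tool. Dosing was either single-drug or a fixed anchor-drug dose plus five library-drug doses (not always all listed) in √10 steps. After 5 days, nuclei were stained in one fix-and-stain step and counted on 4× images, and relative viability is the nuclei count of treated wells over that of vehicle wells, given as the median of duplicate plates.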

In order of rising relative viability:
1. NCI-H520  0.188
2. NCI-H441  0.192
3. NCI-H460  0.195
4. NCI-H2009  0.196
5. LCLC-97TM1  0.197
6. NCI-H3122  0.206
7. NCI-H838  0.21
8. NCI-H2087  0.257
9. SW 1573  0.264
10. HARA  0.268
11. NCI-H1648  0.277
12. COR-L23  0.288
13. SK-MES-1  0.299
14. H3255  0.299
15. NCI-H1734  0.312
16. NCI-H647  0.322
17. NCI-H1650  0.331
18. NCI-H2023  0.34
19. NCI-H2126  0.363
20. COR-L 105  0.37
21. 201T  0.371
22. LU99A  0.379
23. NCI-H2170  0.401
24. HCC-366  0.408
25. NCI-H2347  0.457
26. HCC-78  0.464
27. LOU-NH91  0.473
28. HOP-62  0.483
29. HCC-827  0.493
30. LCLC-103H  0.494
31. NCI-H2342  0.494
32. NCI-H2405  0.497
33. NCI-H1915  0.504
34. PC-14  0.511
35. EMC-BAC-2  0.518
36. SW 900  0.524
37. A-427  0.546
38. BEN  0.565
39. LK-2  0.58
40. LXF-289  0.587
41. NCI-H1993  0.595
42. NCI-H727  0.597
43. NCI-H1395  0.598
44. NCI-H1666  0.62
45. NCI-H2228  0.764
46. ChaGo-K-1  0.905
47. NCI-H522  0.915
48. HCC-44  1.01

same assay, conditions: first compound 0.253 µM

In order of rising relative viability:
1. NCI-H3122  0.155
2. NCI-H460  0.19
3. NCI-H2087  0.192
4. NCI-H520  0.195
5. NCI-H441  0.196
6. NCI-H2009  0.202
7. LCLC-97TM1  0.203
8. NCI-H838  0.231
9. NCI-H1648  0.255
10. HARA  0.258
11. SW 1573  0.268
12. H3255  0.307
13. COR-L23  0.312
14. NCI-H1734  0.32
15. COR-L 105  0.344
16. SK-MES-1  0.348
17. NCI-H2126  0.362
18. 201T  0.366
19. NCI-H2347  0.383
20. NCI-H2023  0.39
21. NCI-H1650  0.401
22. HCC-827  0.411
23. LU99A  0.414
24. LCLC-103H  0.417
25. HCC-78  0.427
26. NCI-H1915  0.435
27. BEN  0.446
28. NCI-H2170  0.455
29. NCI-H2342  0.456
30. HCC-366  0.482
31. NCI-H647  0.486
32. LK-2  0.486
33. SW 900  0.49
34. HOP-62  0.503
35. EMC-BAC-2  0.51
36. NCI-H2405  0.536
37. A-427  0.548
38. LOU-NH91  0.56
39. NCI-H1993  0.578
40. PC-14  0.59
41. NCI-H727  0.628
42. LXF-289  0.639
43. NCI-H1395  0.653
44. NCI-H1666  0.672
45. NCI-H2228  0.911
46. HCC-44  0.941
47. ChaGo-K-1  0.969
48. NCI-H522  1.09

same assay, conditions: first compound 0.8 µM

In order of falling relative viability:
1. HCC-44  0.976
2. NCI-H522  0.896
3. ChaGo-K-1  0.874
4. NCI-H2228  0.804
5. NCI-H1666  0.607
6. LOU-NH91  0.549
7. LCLC-103H  0.52
8. EMC-BAC-2  0.504
9. PC-14  0.502
10. SW 900  0.497
11. NCI-H2342  0.494
12. BEN  0.472
13. HCC-78  0.466
14. NCI-H1993  0.439
15. HOP-62  0.431
16. LU99A  0.398
17. COR-L 105  0.379
18. HCC-366  0.376
19. NCI-H2170  0.368
20. NCI-H2126  0.349
21. H3255  0.333
22. NCI-H647  0.324
23. SK-MES-1  0.316
24. NCI-H1650  0.311
25. NCI-H2087  0.276
26. COR-L23  0.256
27. HARA  0.246
28. NCI-H1648  0.244
29. NCI-H2009  0.221
30. NCI-H838  0.209
31. NCI-H441  0.204
32. NCI-H3122  0.149
